Among the test systems are NCI-H460 lung; RXF 393 renal; NCI-H226 lung; SR leukemia; UACC-62 melanoma; SW-620 colon; 786-0 renal; SF-268 CNS; SK-OV-3 ovarian; MALME-3M melanoma; OVCAR-8 ovarian; UO-31 renal; SNB-75 CNS; CAKI-1 renal; CCRF-CEM leukemia; OVCAR-3 ovarian; U251 CNS; MDA-N.
What all share (assay): inhibition of tumour cell growth, NCI panel, 48 h

Each structure is given as a SMILES string.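 Values below derive from 48-hour exposures of cells grown in 96-well plates, with endpoints linearly interpolated between the two concentrations bracketing the appropriate inhibition level. The concentration for full growth arrest is given as TGI.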

Regarding `NC1=NNC2(C(N)=N1)c1ccccc1-c1ccccc12`, the TGI in the test with NCI-H460 lung, with RXF 393 renal, in the test on NCI-H226 lung, with SR leukemia, in the test with UACC-62 melanoma and in the test on SW-620 colon was above 10 µM each time. Also, the TGI with 786-0 renal, in the test on SF-268 CNS, in the test with SK-OV-3 ovarian, in the test on MALME-3M melanoma, in the test on OVCAR-8 ovarian and with UO-31 renal was above 10 µM throughout. In addition, the TGI with SNB-75 CNS and with CAKI-1 renal was above 10 µM throughout.
`OC1CN2CCS[C@H]2C(O)C1O` (stereo partly specified): the TGI in the test with NCI-H460 lung, with RXF 393 renal, with NCI-H226 lung, in the test with SR leukemia, in the test on CCRF-CEM leukemia and in the test with UACC-62 melanoma was above 100 µM in each case. The TGI in the test with SW-620 colon, in the test on 786-0 renal, in the test with SF-268 CNS, in the test on SK-OV-3 ovarian, with MALME-3M melanoma and with OVCAR-3 ovarian was above 100 µM throughout. Moreover, the TGI with OVCAR-8 ovarian, in the test with UO-31 renal, with SNB-75 CNS, in the test on CAKI-1 renal and with U251 CNS was above 100 µM in each case.
Consider `N#CCCN(CCC#N)c1ccc(/C=C2\N=C(c3ccccc3)N(c3ccccn3)C2=O)cc1`, for which the TGI in the test on NCI-H460 lung, in the test with RXF 393 renal, in the test on NCI-H226 lung, with CCRF-CEM leukemia, in the test with UACC-62 melanoma and with SW-620 colon was above 100 µM throughout. In addition, the TGI in the test with 786-0 renal, in the test on MDA-N, in the test with SF-268 CNS, in the test on SK-OV-3 ovarian, in the test with MALME-3M melanoma and in the test on OVCAR-3 ovarian was above 100 µM each time. Moreover, the TGI with OVCAR-8 ovarian, with UO-31 renal, with CAKI-1 renal and with U251 CNS was above 100 µM in each case.
With `CC(C)NCC(O)c1ccc(OCc2ccccc2)c(OCc2ccccc2)c1-c1ccccc1` (stereo unspecified), the TGI in the test with NCI-H460 lung is 3.49 µM; with RXF 393 renal, above 100 µM; in the test on NCI-H226 lung, 4.28 µM; in the test with UACC-62 melanoma it was 2.72 µM; with SW-620 colon, 3.13 µM; with 786-0 renal, 3.25 µM. In addition, the TGI worked out at 3.1 µM in the test on MDA-N; 11.8 µM with SF-268 CNS; 3.16 µM in the test with SK-OV-3 ovarian; 3.16 µM with MALME-3M melanoma; 3.22 µM with OVCAR-3 ovarian; 3.17 µM in the test with OVCAR-8 ovarian. The values for the TGI in the test on UO-31 renal, with SNB-75 CNS and in the test on CAKI-1 renal were 7.82 µM, 2.54 µM and 3.18 µM, respectively.
In the case of `COc1ccc2oc(C(=O)N3CC(CCl)c4ccc([N+](=O)[O-])cc43)cc2c1` (stereo unspecified), the TGI was above 100 µM in the test with NCI-H460 lung; 34 µM in the test with RXF 393 renal; 36.8 µM in the test with NCI-H226 lung; above 100 µM in the test on SR leukemia; above 100 µM in the test with UACC-62 melanoma; above 100 µM in the test with SW-620 colon. In addition, the TGI in the test with 786-0 renal was 46 µM; with SF-268 CNS, 53.8 µM; in the test with SK-OV-3 ovarian, 48.7 µM; with OVCAR-8 ovarian, above 100 µM; with UO-31 renal, above 100 µM; in the test with SNB-75 CNS, 79.3 µM. For the same compound, the values for the TGI with CAKI-1 renal and with U251 CNS were 45.6 µM and above 100 µM, respectively.
With `COP1(=O)Oc2ccccc2C(=O)C(C(F)(F)F)(C(F)(F)F)O1` (stereo unspecified), the TGI in the test with NCI-H460 lung, with RXF 393 renal, with SR leukemia, in the test with CCRF-CEM leukemia, with UACC-62 melanoma and in the test with SW-620 colon was above 100 µM each time. Further, the TGI with 786-0 renal, with SF-268 CNS, in the test on SK-OV-3 ovarian, in the test with OVCAR-8 ovarian, with UO-31 renal and with SNB-75 CNS was above 100 µM in each case. Also, the TGI in the test with CAKI-1 renal and in the test on U251 CNS was above 100 µM in each case.
For `O=C(NCCO)Nc1c(C(F)(F)F)cc(-c2ccccc2)[nH]c1=O`, the TGI in the test on NCI-H460 lung, in the test on RXF 393 renal, in the test with NCI-H226 lung, in the test with CCRF-CEM leukemia, with UACC-62 melanoma and with SW-620 colon was above 100 µM throughout. Moreover, the TGI with 786-0 renal, with MDA-N, in the test on SK-OV-3 ovarian, in the test with OVCAR-3 ovarian, in the test with OVCAR-8 ovarian and with UO-31 renal was above 100 µM each time. Moreover, the TGI with CAKI-1 renal and in the test on U251 CNS was above 100 µM throughout.
`O=C(OC(=C(c1ccccc1)c1ccccc1)N1CCCC1=S)C(c1ccccc1)c1ccccc1`: the TGI with NCI-H460 lung, with RXF 393 renal, in the test on NCI-H226 lung, with SR leukemia, in the test with CCRF-CEM leukemia and in the test on UACC-62 melanoma was above 10 µM in each case. Moreover, the TGI with SW-620 colon, in the test with 786-0 renal, with SF-268 CNS, in the test with SK-OV-3 ovarian, in the test with MALME-3M melanoma and in the test with OVCAR-3 ovarian was above 10 µM each time. The TGI with OVCAR-8 ovarian, in the test with UO-31 renal, in the test on SNB-75 CNS, in the test with CAKI-1 renal and in the test on U251 CNS was above 10 µM throughout.
As for `CCOC(=O)CCC(NC(=O)Cc1ccc(Oc2nc3ccccc3nc2-c2cccs2)cc1)C(=O)OCC` (stereo unspecified), the TGI is above 100 µM with NCI-H460 lung; 27.5 µM in the test on RXF 393 renal; 86.2 µM in the test with NCI-H226 lung; above 100 µM with SR leukemia; above 100 µM in the test on CCRF-CEM leukemia; above 100 µM in the test with UACC-62 melanoma. In addition, the TGI is above 100 µM with SW-620 colon; 15.3 µM in the test with 786-0 renal; 12.6 µM with SF-268 CNS; above 100 µM in the test on MALME-3M melanoma; 29.2 µM in the test with OVCAR-3 ovarian; 14.2 µM in the test with OVCAR-8 ovarian. The TGI in the test with UO-31 renal was 72.7 µM; in the test on CAKI-1 renal, above 100 µM; in the test on U251 CNS, 87.1 µM.

The values above are taken from PubChem BioAssay (NCI).
